{"source": "patent US20200016097A1", "about": "“Methods for Preventing and Treating Radiation-Induced Epithelial Disorders” (priority 2009, published 2020)", "system": "IEC-18 cells", "experiment": "Repair of mechanically wounded IEC-18 monolayers", "format": "cell-based, rat", "conditions": "5% PEG 15-20, 50 ng/ml EGF; after 24 hours", "protocol": "In order to assess the ability of HMW PEG to induce the repair of epithelial monolayers following injury, IEC-18 cells were grown to confluency in 60 mm dishes, rinsed then the monolayer was mechanically wounded using a razor blade. Detached cells were removed and fresh medium containing 5% PEG 15-20, 50 ng/ml Epidermal Growth Factor (EGF) or a combination of both was added. The cells were maintained in the presence of treatment for 24 hours or were treated for 2 minutes, washed then incubated without treatment for 24 hours. Wound healing was assessed by the decrease in the length of the wound after 24 hours.", "data": [{"substance": "EGF: Epidermal Growth Factor, 50 ng/ml (NSDSECPLSHDGYCLHDGVCMYIEALDKYACNCVVGYIGERCQYRDLKWWELR; UniProt P01133 971-1023, looked up)", "values": [{"measurement": "wound healing (decrease in the length of the wound)", "value": "induced wound healing"}]}]}
